Where “and” joins values, the source holds several entries; their conditions need not be identical. Equal entries are not always repeated.
Experiments:
[1] = system: mice; test: Siegmund test with phenylbenzoquinone in mice; type: in vivo; conditions: Mus musculus, po, 1 h, peroral, one hour before phenylbenzoquinone i.p., read-out: DE50 (50% reduction in the number of contortions)
Experimental: This test has been performed in accordance with the method described by Siegmund, Cadmus and Lu ("A method for evaluating both non-narcotic and narcotic analgesics", Proc. Soc. Exp. Biol. Med., 1957, 95, 729-731).
(§1) One hour after peroral administration of the product under study to batches of twelve mice per dose, phenylbenzoquinone in solution in a proportion of 0.02% in water containing 5% ethyl alcohol is administered by intraperitoneal injection in a proportion of 0.25 ml per mouse of 20 g.
The dose DE50 (which produces a 50% reduction in the number of contortions with respect to the reference animals) is calculated on the basis of the dose/effect relation.

[2] = system: rat fundus; test: Antagonism produced by harmine on rat fundus; type: cell-based; conditions: product as agonist, harmine as antagonist
Experimental: (§2) These interactions are sought on isolated organs which are maintained in a state of survival in a nutrient liquid. The contractions of these organs are recorded on a kymograph by means of an isotonic mechanism.
(§3) An agonist is added to the nutrient liquid bath, either alone or after addition of an antagonist, to increasing concentrations which serve to plot cumulative dose-response curves.
The organ studied in this case is the rat fundus the nutrient liquid is the Kreps liquid, the agonist corresponds to the product under study and the antagonist is harmine.

[3] = molecular target: morphine-compound cerebral receptors; test: Fixation on morphine-compound cerebral receptors (displacement of tritiated etorphin); type: binding; conditions: rat-brain homogenate, 1 mg/ml protein, 30 minutes at 35° C; read-out: CI50 (displacement of tritiated etorphin)
Experimental: It is sought to determine the affinity of the products under study by means of their capacity for displacement of tritiated etorphin in a rat-brain homogenate (containing 1 mg/ml of protein) over a period of 30 minutes at 35° C. This test consists in determining the value CI50 corresponding to the concentration of products which are capable of inhibiting 50% of the specific radioactive ligand bond.

[4] = system: mice; test: Heating-plate test performed on mice (Eddy test); type: in vivo; conditions: peroral, one hour before test, plate at 56.5° C; for ED30: Mus musculus, po, 1 h, read-out: DE30 (30% increase in licking time)
Experimental: This test has been carried out in accordance with the method described by N. B. Eddy (J. Pharmacol: 1932, 45, 339-359).
One hour after the product under study has been administered perorally to batches of twelve mice per dose, the time taken by the mice to lick their front paws is measured, the mice having been placed on a plate heated to a temperature of 56.5° C.
The dose DE30 (which produces a 30% increase in licking time with respect to the reference animals) is calculated on the basis of the dose/effect relation.

[5] = system: rat fundus; test: Agonism on the rat fundus; type: cell-based; conditions: product under study as agonist
Experimental: as §2, §3
The organ under study is the rat fundus, the nutrient liquid is the Kreps liquid and the agonist is the product under study.

[6] = molecular target: T1, rat fundus (Rattus norvegicus, UniProt P30994); test: Antagonism with respect to serotonin on isolated organ; type: cell-based; conditions: for nature of antagonism with respect to serotonin: rat fundus, agonist serotonin
T1 construct: The organ under study is the rat fundus; from tissue; host or cells: isolated rat fundus
Experimental: as §2, §3
The organ under study is the rat fundus, the nutrient liquid employed is Kreps liquid, the agonist is serotonin and the antagonist is the product under study.

[7] = Acute toxicity in mice (DL50), peroral; conditions: mouse, in vivo, po, mortality over 48 hours
Experimental: The acute toxicity is evaluated according to the mortality observed during a period of 48 hours on batches of four mice which have received perorally 100, 200, 400, 800 and 1600 mg/kg of the compound under study.

[8] = system: mice; test: Antagonism produced by Naloxone in the Siegmund test; type: in vivo
Experimental: as §1
The dose DE50 (which produces a 50% reduction in the number of contortions with respect to the reference animals) is calculated on the basis of the dose/effect relation. The following results are thus obtained:
This antagonism is sought in the Siegmund test performed on mice with phenylbenzoquinone as described earlier. Naloxone is administered by subcutaneous injection at a fixed dose at the same time as the product under study.

[9] = molecular target: T2, guinea-pig ileum (Cavia porcellus, UniProt P31389); test: Antagonism with respect to histamine on isolated organ; type: cell-based; conditions: agonist histamine
T2 construct: the organ on which this action has been studied is the guinea-pig ileum; from tissue; host or cells: isolated guinea-pig ileum
Experimental: as §2, §3
In this test, the organ on which this action has been studied is the guinea-pig ileum. The nutrient liquid employed is Tyorode, the agonist is histamine and the antagonist is the product under study.

T2 sequence (P31389 whole entry): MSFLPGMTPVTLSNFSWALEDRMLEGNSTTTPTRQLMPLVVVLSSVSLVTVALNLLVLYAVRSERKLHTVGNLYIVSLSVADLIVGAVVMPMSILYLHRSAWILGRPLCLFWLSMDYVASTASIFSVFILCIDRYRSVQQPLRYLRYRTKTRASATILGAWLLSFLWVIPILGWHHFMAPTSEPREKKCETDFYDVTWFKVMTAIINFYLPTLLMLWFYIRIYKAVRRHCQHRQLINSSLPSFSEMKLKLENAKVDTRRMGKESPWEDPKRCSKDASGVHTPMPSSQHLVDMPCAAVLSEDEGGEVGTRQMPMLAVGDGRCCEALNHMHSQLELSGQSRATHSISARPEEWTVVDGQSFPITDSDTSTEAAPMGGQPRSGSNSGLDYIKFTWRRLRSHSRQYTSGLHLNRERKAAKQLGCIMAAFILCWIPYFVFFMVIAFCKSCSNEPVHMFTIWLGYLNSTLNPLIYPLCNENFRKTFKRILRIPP
T1 sequence (P30994 whole entry): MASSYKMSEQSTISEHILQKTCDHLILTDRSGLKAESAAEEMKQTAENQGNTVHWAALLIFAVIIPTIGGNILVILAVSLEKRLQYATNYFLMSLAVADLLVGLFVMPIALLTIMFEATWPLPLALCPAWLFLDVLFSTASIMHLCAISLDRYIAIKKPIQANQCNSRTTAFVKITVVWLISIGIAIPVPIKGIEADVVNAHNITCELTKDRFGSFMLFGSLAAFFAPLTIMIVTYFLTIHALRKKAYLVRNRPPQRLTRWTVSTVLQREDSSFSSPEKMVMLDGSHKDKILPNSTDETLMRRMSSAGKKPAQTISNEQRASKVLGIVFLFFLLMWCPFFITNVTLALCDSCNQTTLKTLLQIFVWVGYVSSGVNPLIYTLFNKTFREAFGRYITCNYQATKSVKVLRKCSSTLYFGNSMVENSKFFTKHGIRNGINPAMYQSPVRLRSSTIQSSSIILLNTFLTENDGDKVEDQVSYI

Row | SMILES | ED50 [1] | nature of antagonism by harmine with respect to the product [2] | IC50 [3] | ED30 [4] | DE30 (30% increase in licking time) [4] | affinity parameter (pD2) as agonist [5] | nature of antagonism with respect to serotonin [6] | LD50 at 48 h [7] | antagonism of analgesic effect by Naloxone (conclusion) [8] | affinity parameter (pA2) with respect to histamine [9] | nature of antagonism with respect to histamine [9] | Kb [6]
1 | c1ccc(CN2CCN(c3coc4ccccc34)CC2)cc1 [1-(3'-benzofuryl)-4-benzylpiperazine] | 22 µmol/kg and 6.5 mg/kg | competitive antagonism | > 300 µM | 20 mg/kg | 70 micro-moles per kg | 7.0 | non-competitive antagonist | 5500 µmol/kg and 1600 mg/kg | antagonized by Naloxone | 5.99 | competitive antagonist | –
2 | CC(=O)n1cc(N2CCN(Cc3ccccc3)CC2)c2ccccc21 [known compound, 1-acetyl-3-benzylpiperazino-indole] | 55 µmol/kg and 18 mg/kg | non-competitive antagonism | 103 µM | 13 mg/kg | 40 micro-moles per kg | 5.4 | competitive antagonist | 3000 µmol/kg and 1000 mg/kg | not antagonized | – | non-competitive antagonist | 4.57 µM
